We go through 2 molecules from patent publication US20040001791A1, “Composition, method of use, and devices for the treatment of onychomycosis” (priority 2000, published 2004).

The test system of experiment [1] is fungal infected fingernail (onychomycosis). Briefly: Topical treatment of a fungal infected fingernail in a patient. It is filed as in vivo, human.
Excerpt: The copper sulfate solution was applied to their fingernails for approximately thirty minutes and then allowed to air dry. Excess copper sulfate powder was removed by washing two-three times with water. […] Monthly, the copper sulfate solution was applied as given above to the infected fingernail and to all fingernails on the same hand.
The bandage was applied to the infected nail and secured in place. Care was given to ensure that the solution soaked into the crevice along the edge of the nail bed and cuticle. […] The bandage was worn for two days and then replaced with a clean dry bandage to protect the nail from snagging. The treatment was repeated on Day 31 and again on Day 45; no further treatments were given.
Experiment [2] relates to fungal infected toe nail. Kind of experiment: Topical treatment of a fungal infected toe nail in a patient. It is filed as in vivo, human. Particulars: aqueous 10% (w/v) solution applied approximately thirty minutes, air dried, washed with water, Example 2 repeated monthly. The source says:
As the treated nail grew, healthy nail tissue appeared at the base of the nail bed while the infected portion of the nail was pushed off the nail bed and periodically trimmed away. […] A patient diagnosed as having a fungal infected toe nail began treatment by applying with a cotton swab an aqueous 10% (w/v) copper(II)sulfate pentahydrate solution to the infected nail as well as to all nails on the same foot. […] As the treated nail grew, healthy nail tissue appeared at the base of the nail bed while the infected portion of the nail was pushed off the nail bed and periodically trimmed away. […] The infected portion of the patient's nail continued to have a bluish color.

Entries after “also recorded” stand apart in the source; their conditions may differ.

Turning to `O=S(=O)([O-])[O-].[Cu+2]` [copper sulfate], the “Nail examination after treatment” value in experiment [1] (person, right index fingernail, 10% aqueous solution with trace of detergent on bandage worn two days, Day 1, 31, 45, examined Day 132) was “New pink nail growth was present from the cuticle to a point midway along the nail”.
As to `O.O.O.O.O.O=S(=O)([O-])[O-].[Cu+2]` [copper(II)sulfate pentahydrate], in experiment [1] (patient, aqueous 10% (w/v) solution applied approximately thirty minutes, washed, repeated monthly), the “Outcome of fingernail treatment (spread of fungal infection, nail condition)” value is “resulting in a normal healthy nail”. The “Outcome of toe nail treatment (spread of fungal infection, nail condition)” value in experiment [2] was “the fungal infection did not spread to healthy nail tissue; also recorded: resulting in a normal healthy nail”.
